From patent publication US20220048893A1, “Compounds for Treating Neurodegenerative Diseases and Cancers” (Hongyi & Associates LLC, priority 2019, published 2022) come the findings set out here.

The series is described as follows: In vivo PK study, oral, plasma and brain. Also on record: species or system Sprague Dawley rats; AUC(0-t) / AUC(0-inf): concentration or dose not given beside the values. The conditions noted are these: for brain permeability compared to Nilotinib and Imatinib: in vivo PK studies; for Kp / AUC(0-inf) / AUC(0-t) / Cmax / Tmax / half-life: rat, oral, Sprague Dawley rats; for Kp: brain and plasma, read-out: AUC(0-t) Brain/ AUC(0-t) plasma. The protocol: In the PK profiling study, Compounds 1 and 2 were administered orally to three Sprague Dawley rats. The animals were fasted overnight before drug administration. The food supply were resumed 4 hrs post dose. Blood samples were collected at 8 time points after dose: 0.25 h, 0.5 h, 1 h, 2 h, 4 h, 6 h, 8 h and 24 h. There are three samples for each time point. Brain tissues were collected after 24 hour blood sample collection. Drug concentrations in blood and brain were analyzed by LC-MS/MS. The analytical results were confirmed using quality control samples for intra-assay variation. The accuracy of >66.7% of the quality control samples should be between 80-120% of the known values. Standard set of parameters including area under the curve (AUC(0-t) and AUC(0-∞)), elimination half-life (T1/2), maximum plasma concentration (Cmax), time to reach maximum plasma concentration (Tmax) were calculated using noncompartmental analysis modules in FDA certified pharmacokinetic program Phoenix WinNonlin 7.0 (Pharsight, USA). The ratio of brain to plasma concentration were calculated by the concentration in brain tissue versus the concentration in plasma.

Take `Cc1ccc(C(=O)Nc2ccc(CC(C)N(C)C)cc2)cc1Nc1ccnc(-c2cccnc2)n1` (stereo not drawn) [Compound 1, N-(4-(2-(dimethylamino)propyl)phenyl)-4-methyl-3-((2-(pyridin-3-yl)pyrimidin-4-yl)amino)benzamide]: the “brain permeability compared to Nilotinib and Imatinib” value is reported as “much improved brain permeability”; the Kp was determined as 0.121. Under “Brain”, the AUC(0-inf) (usually total exposure, with the tail of the curve extrapolated) was determined as 8740 ng·h/mL; the AUC(0-t) (as a rule, the area under the concentration-time curve up to a stated or last time point) came to 7720 ng·h/mL; the Cmax (in general, the highest concentration seen after dosing) turned out to be 557 ng/mL; the time of peak concentration (Tmax) (commonly the time from dosing to the highest level) was found to be 6 h. Further, the half-life – broadly, the time needed for the level to fall by half in the phase considered – (Brain) was 7.1 h. For the setting “Plasma”, the AUC(0-inf) was 65400 ng·h/mL, the AUC(0-t) is 64000 ng·h/mL, the Cmax was 6680 ng/mL and the Tmax is 4 h. The molecule further showed a half-life (Plasma) of 3.98 h.

On to `Cc1ccc(C(=O)Nc2ccc(C3CCN(C)CC3)cc2)cc1Nc1ccnc(-c2cccnc2)n1` [Compound 2, 4-methyl-N-(4-(1-methylpiperidin-4-yl)phenyl)-3-((2-(pyridin-3-yl)pyrimidin-4-yl)amino)benzamide], for which the “brain permeability compared to Nilotinib and Imatinib” value is “much improved brain permeability”; the Kp is 0.142. Also, for the setting “Brain”, the AUC(0-inf) stood at 25600 ng·h/mL, the AUC(0-t) came out at 13100 ng·h/mL, the Cmax stood at 796 ng/mL and the Tmax is 6 h. Also, the half-life (Brain) was 20.2 h. Besides, under “Plasma”, the AUC(0-inf) is 219000 ng·h/mL, the AUC(0-t) was 92000 ng·h/mL, the highest level (Cmax) was 5380 ng/mL and the time to peak (Tmax) is 6 h. The molecule further gave a half-life (Plasma) of 26.8 h.
